These are literature values, as cited in patent US20250367260A1, “TIRZEPATIDE COMPOSITIONS AND PREPARATION METHOD” (Galenicum Health S.L.U., priority 2024, published 2025).

Molecules are shown by their SMILES.

Turning to `O=S(=O)(O)CC(O)CN(CCO)CCO` (stereo not drawn) [DIPSO, 3-(N,N-Bis[2-hydroxyethyl]amino)-2-hydroxypropanesulfonic acid], the pKa result was “≈ 7.6”. Consider `O=S(=O)(O)CCN1CCN(CCO)CC1` [HEPES, 4-(2-hydroxyethyl)-1-piperazineethanesulfonic acid], for which the pKa entry was “≈ 7.5”. Take `O=S(=O)(O)CCCN1CCN(CCO)CC1` [HEPPS, 4-(2-Hydroxyethyl)-1-piperazinepropanesulfonic acid]: the pKa entry is “≈ 8.1”. On to `O=S(=O)(O)CC(O)CNC(CO)(CO)CO` (stereo not drawn) [TAPSO, 3-[N-Tris(hydroxymethyl)methylamino]-2-hydroxypropanesulfonic acid], for which the pKa entry is given as “≈ 7.6”. Regarding `O=S(=O)(O)CCNC(CO)(CO)CO` [TES, N-[Tris(hydroxymethyl)methyl]-2-aminoethanesulfonic acid], the pKa result was “≈ 7.4”.

As to `O=C(O)CNC(CO)(CO)CO` [Tricine, N-tris(hydroxymethyl)methylglycine], the pKa entry is recorded as “≈ 8.2”.
